Test results published in paper PMC11858597, “Synthesis, Anticancer Screening, and In Silico Evaluations of Thieno[2,3-c]pyridine Derivatives as Hsp90 Inhibitors” (Pharmaceuticals, 2025).
Values belong to the compound of their own block, whether it stands above or below them.

Tests used:
Hsp90 = tested on: Hsp90; design: method as in PMID 20371713; conditions: against breast cancer; read-out: Hsp90 inhibition IC50; cited from earlier work
MCF7 = assay: MTT assay, MCF7 breast cancer cells; format: cell-based
Source text: (§1) An MTT assay was used to evaluate the final compounds’ anticancer activity against MCF7 and T47D (breast cancer cells), HSC3 (head and neck cancer cells), and RKO (colorectal cancer cells) cell lines, using cisplatin as a reference standard. Table 1 presents the percentage growth inhibition of all compounds against the various cancer cell lines.
(§2) The cancer cell lines MCF7 and T47D (breast cancer cells), HSC3 (head and neck cancer cells), and RKO (colorectal cancer cells) were kindly provided by Prof. Stephan Feller, Institute of Molecular Medicine, Martin Luther University, Halle, Germany. The human fibroblast (PDL) cell line was obtained as a kind gift from Prof. Khaled Al-Qaoud (Yarmouk University, Irbid, Jordan). All cell lines were cultured in Dulbecco’s Modified Eagle’s Medium (DMEM) supplemented with 10% fetal bovine serum, 100 µg/mL streptomycin, 100 U/mL penicillin, and 1% non-essential amino acid at 37 °C with 5% CO2 in a humidified CO2 incubator. The cell cultures were grown to confluence, and the medium was changed two times weekly.
(§3) The MTT (3-[4,5-dimethylthiazol-2-yl]-2,5-diphenyl tetrazolium bromide) assay was used to investigate cell viability and to calculate the half-maximal inhibitory concentration (IC50) values of the compounds 6(a–k) including standard reference cisplatin. Furthermore, […] stock solutions of the compounds were prepared in DMSO where all compounds were completely soluble. Cells were seeded in 96-well tissue culture plates at a density of 6,000 cells/well for MCF7, T47D, and PDL cells and at a density of 4000 cells/well for RKO and HSC3 cells. After 24 h of seeding, investigated cells were treated with three concentrations (1, 10, and 100 µm) of the compounds for 72 h. At the end of the treatment time, the supernatant medium was aspirated, and 50 µL of fresh DMEM containing MTT (0.5 mg/mL) was added to each well. Cells were then incubated at 37 °C for 2–4 h. After that, the medium was completely removed, and 50 µL of DMSO was added to each well to dissolve the precipitated formazan crystals formed by viable cells. Cell viability, represented by the absorbance of the formazan solution, was measured at 570 nm using the Synergy HTX Multimode Reader (BioTek, Vermont, USA), and cell viability was determined as described in the literature. For each concentration, the relative cell viability was calculated as follows: relative cell viability = (mean treatment absorbance/mean control absorbance) × 100%. Assays were performed in triplicate on three independent experiments. […] IC50 values were then calculated using the four-parameter logistic function in the SigmaPlot software (version 12.5) and presented as the mean ± SD from three independent experiments.

RKO cells [1] = assay: Cell cycle analysis (PI staining), RKO; format: cell-based; conditions: IC50 concentration, 72 h
Description: (§4) In a subsequent set of experiments, we aimed to evaluate the effect of compound 6i on the cell cycle. Treatment with 6i led to a significant accumulation of HSC3 and RKO cells in the G2 phase (HSC3: control, 34.6% ± 3.2% vs. 6i, 46.4% ± 3.6%; RKO: control, 34.5% ± 2.9% vs. 6i, 64.2% ± 3.5%).
(§5) The supernatant with the floating dead cells and the attached cells from each well were collected and fixed in cold ethanol at −20 °C for 30 min [69]. Cells were stained with a Propidium iodide (PI) working solution (1 µg/mL PI and 10 µg/mL RNase A in PBS) for 30 min at 37 °C in the dark and then washed with PBS. Cell fluorescence was measured using the FACS Accuri C6 Plus (BD BIOSCIENCES, Franklin Lakes, NJ, USA) flow cytometer. Histograms of cell counts versus […] fluorescence were generated, and the distribution of cells throughout several cell cycle stages was assessed based on the mean fluorescence intensity values. About 10,000 events were examined utilizing FlowJo software (version 10).

T47D = assay: MTT assay, T47D breast cancer cells; format: cell-based; conditions: Homo sapiens, 72 h
Source text: as §1, §2, §3

RKO cells [2] = assay: Apoptosis evaluation by Annexin V/PI staining, RKO; format: cell-based; conditions: IC50 concentration, 72 h
Description: (§6) To further examine the processes responsible for reduced cell viability, apoptosis was evaluated by Annexin V/Propidium Iodide (PI) double staining, as outlined in the experimental section by considering the best active compound 6i. […] Annexin V/PI staining detects very little increase in Annexin-positive cells; 6i-treated cells were stained with Annexin V and PI for fluorescence-activated cell sorting (FACS) analysis. The results establish that 6i may promote cell death by processes distinct from apoptosis, deserving further investigation into alternative pathways, such as autophagy or ferroptosis.
(§7) Floating dead cells and the attached cells were collected, washed with PBS, and resuspended in 100 μL of Annexin V solution for 30 min according to the manufacturer’s instruction (Annexin V-FITC Kit, Miltenyi Biotec, Gaithersburg, MD, USA, Catalog Number 130-092-052). After Annexin V staining, cells were stained shortly with PI to exclude the dead cells. The quantitative analysis for apoptosis was performed by FACS Accuri C6 Plus (BD BIOSCIENCES, Franklin Lakes, NJ, USA) flow cytometer. About 10,000 events were analyzed using the FlowJo software (version 10).

HSC3 = assay: MTT assay, HSC3 head and neck cancer cells; format: cell-based
Source text: as §1, §2, §3

HSC3 cells [3] = assay: Cell cycle analysis (PI staining), HSC3; format: cell-based; conditions: HSC3, IC50 concentration, 72 h
Description: as §4, §5

HSC3 cells [4] = assay: Apoptosis evaluation by Annexin V/PI staining, HSC3; format: cell-based; conditions: HSC3, IC50 concentration, 72 h
Description: as §6, §7

RKO = assay: MTT assay, RKO colorectal cancer cells; format: cell-based; conditions: Homo sapiens, 72 h
Source text: as §1, §2, §3

PDL = assay: MTT assay, normal fibroblast cell line (PDL); format: cell-based, human; conditions: 72 h
Source text: To understand the selectivity of compounds, a normal fibroblast cell line (human periodontal ligament-PDL) is also included in this IC50 determination.
as §2, §3

[5] = 1 µM, read-out: % cell growth inhibition
[6] = 10 µM, read-out: % cell growth inhibition
[7] = 100 µM, read-out: % cell growth inhibition

SMILES: CCNC(=O)c1cc2c(-c3cc(OCCN4CCCC4)c(Cl)cc3Cl)nc(N)nc2s1 [NVP-BEP800]
IC50 (Hsp90): 58 nM

IC50 (MCF7; Homo sapiens, MCF7, 72 h): 16.4 ± 0.2 µM
IC50 (T47D): 11.7 ± 1.1 µM
IC50 (HSC3; Homo sapiens, HSC-3, HSC3, 72 h): 10.8 ± 3.9 µM
IC50 (RKO): 12.4 ± 1.9 µM
SMILES: CCOC(=O)c1c(NC(=O)CN2CCSCC2)sc2c1CCN(C(=O)OCC)C2 [6i, Diethyl 2-(2-thiomorpholinoacetamido)-4,7-dihydrothieno[2,3-c]pyridine-3,6(5H)-dicarboxylate]
inhibition at 1 µM (MCF7; Homo sapiens, MCF7, 1 µM, 72 h, read-out: % cell growth inhibition): 1.53%
inhibition at 10 µM (MCF7; Homo sapiens, MCF7, 10 µM, 72 h, read-out: % cell growth inhibition): 39.1%
inhibition at 100 µM (MCF7; Homo sapiens, MCF7, 100 µM, 72 h, read-out: % cell growth inhibition): 95.3%
% cell growth inhibition (MCF7; MCF7, 1 µM, 72 h): weak inhibition
cells in the G2 phase (RKO cells [1]; control 34.5% ± 2.9%): 64.2% ± 3.5%
proportion of cells in the G1 and S phases (RKO cells [1]; vs control): markedly reduced
inhibition at 1 µM (T47D; [5]): 1.9%
inhibition at 10 µM (T47D; [6]): 35.3%
inhibition at 100 µM (T47D; [7]): 83.9%
proportion of apoptotic cells with positive Annexin V staining (RKO cells [2]): significantly lower
% cell growth inhibition (HSC3; HSC3, 100 µM, 72 h, 100 µM): 94.04%
inhibition at 1 µM (HSC3; Homo sapiens, HSC-3, 72 h, HSC3, 1 µM, 72 h, read-out: % cell growth inhibition): 14.8%
inhibition at 10 µM (HSC3; Homo sapiens, HSC-3, 72 h, HSC3, 10 µM, 72 h, read-out: % cell growth inhibition): 62.3%
inhibition at 100 µM (HSC3; Homo sapiens, HSC-3, 72 h, HSC3, 100 µM, 72 h, read-out: % cell growth inhibition): 94%
proportion of cells in the G1 and S phases (HSC3 cells [3]; vs control): markedly reduced
cells in the G2 phase (HSC3 cells [3]; control 34.6% ± 3.2%): 46.4% ± 3.6%
proportion of apoptotic cells with positive Annexin V staining (HSC3 cells [4]): significantly lower
inhibition at 1 µM (RKO; [5]): 5.17%
inhibition at 10 µM (RKO; [6]): 55.4%
inhibition at 100 µM (RKO; [7]): 92.5%
IC50 (PDL; Homo sapiens, Fibroblast, PDL normal fibroblasts): > 100 µM
toxicity to normal fibroblast cell lines, PDL (PDL; PDL): no toxicity
